Results on four substances are retold here after publication PMC9456491, “Targeting the Mitochondrial Protein VDAC1 as a Potential Therapeutic Strategy in ALS” (International Journal of Molecular Sciences, 2022).

The conditions of test [1]: ref [32]; cited from earlier work. The source says:
In order to test whether a VDAC1-derived N-terminal peptide can rescue mutant SOD1 toxicity, we expressed two different SOD1 mutants (SOD1^G93A or SOD1^G37R) in SH-SY5Y neuronal cells. These expressed SOD1 mutant proteins decreased cell survival compared to control cells. […] It is important to note that in this peptide, the last six residues f ...

Test [2] has as its system SH-SY5Y neuronal cells expressing mutant SOD1^G93A or SOD1^G37R. The test can be described thus: Rescue of mutant SOD1-induced cell death in transfected SH-SY5Y cells. Format: cell-based. The following applies: 4.5 × 10^4 cells/well, transfected with SOD1^G93A or SOD1^G37R, peptide 20 µM, 5 h, 24 h post-transfection, triplicates, n = 3, means ± SEM. On the procedure:
Figure 1 Identification of VDAC1 interacting sites in SOD1. (A) SH-SY5Y cells (4.5 × 10^4 cells/well in 24-well plates) were transfected with an empty plasmid or a plasmid encoding for mutant SOD1^G93A or SOD1^G37R. Then, 24 h post-transfection, the cells were incubated for 5 h with (10-20)N-Ter-Antp peptide (20 µM) and then analyzed for cell death. The results are from triplicates of different biological repeats (n = 3) and are presented as the means ± SEM. * p < 0.05. (B) Schematic presentation of peptide arrays and detection of VDAC1-interacting peptides. (C) Glass-bound peptide array consisting of 768 overlapping peptides derived from 19 VDAC1-interacting proteins were incubated for 4 h with purified VDAC1 (64 nM) and then blotted with anti-VDAC1 antibodies against an internal sequence (1:5000) or with antibodies against the VDAC1-N-terminus, followed by incubation with HRP-conjugated anti-mouse IgG and detection using a chemiluminescence kit. […]
SH-SY5Y and NSC-34 cells were grown at 37 °C and with 5% CO2 in Dulbecco’s modified Eagle medium (DMEM) supplemented with 10% tetracycline-free fetal bovine serum (FBS), L-Glutamine (2 mM), and penicillin (100 U/mL)/streptomycin (0.1 mg/mL). […] According to the manufacturer’s protocol, cell viability was analyzed using the CellTiter 96 AQueous one-solution cell proliferation assay (Promega) and plate reader at 490 nm.

For test [3], the system named is VDAC1 interaction with SOD1-derived peptides (spots 1C16 and 1C17). The test can be described thus: Inhibition of VDAC1 interaction with SOD1-derived peptides on peptide array. Format: binding, rat. The following applies: VDAC1 64 nM pre-incubated 1 h with 160 nM SOD1 protein, then 4 h with array; for inhibition of VDAC1 interaction with 1C17 peptide: spot 1C17; for decrease of VDAC1 interaction with both SOD1-derived peptides 1C16 and 1C17: spots by Image J. On the procedure:
Figure 2 VDAC1 interaction with SOD1-derived peptides is reduced by WT and mutant SOD1. VDAC1 (64 nM) was pre-incubated for 1 h without (A) or with 160 nM of SOD1^WT (B), SOD1^G93A (C), or SOD1^G85R (D), followed by incubation for 4 h with the peptide array and then blotted with anti-VDAC1 antibodies, as in Figure 1C. SOD1-derived sequences are circled. […] (G) Pull down with anti-SOD1 antibody was performed by incubating recombinant VDAC1 and SOD1 proteins (2 µg each) with increasing concentrations of SOD1-derived peptide (0, 5, 15, and 30 µM). Immunoblotting was used to determine the levels of SOD1^G93A and VDAC1 in the bound and unbound fraction of each immunoprecipitation experiment. […] (H) Quantification of immunoblotting bands with ImageJ software. Quantification analysis of the relative VDAC1 intensity was performed with one-way ANOVA. Bars represent mean ± SEM. TEXT PRINTED IN THE PICTURE: (F) SOD1-derived peptide: Kd= 4 μM
Customized 768-peptide sequences derived from 19 VDAC1-interacting proteins produced by INTAVIS Peptide Services (GmbH & Co. KG, Tübingen, Germany) were arrayed on a glass slide. The interaction of purified VDAC1 with glass-bound peptide arrays (BGUN_SB-002) was assessed by slide washing with TBST buffer (150 mM NaCl, 50 mM Tris/HCl, pH 7.4, and 0.1% Tween-20), followed by overnight incubation with blocking buffer (Tris-buffered saline, pH 7.8, containing 2.5% low-fat milk, w/v) at 4 °C. Next, the peptide array glass slides were incubated with purified VDAC1 (64 nM) in 400 µL of protein-interacting buffer (20 mM HEPES, 100 mM KCl, pH,7.4, PBS) at room temperature for 4 h in a humidified chamber. Then, the peptide array glass slides were washed (three times, 10 min each) with TBST and incubated overnight at 4 °C with anti-VDAC1 antibody against an internal sequence (ab15895) or against the N-terminus (ab154856) (1:5000). The peptide array glass slides were washed with 0.1% Tween-20 in TBS buffer/Tris-buffered saline (150 mM NaCl, 50 mM Tris/HCl, pH 7.4 TBST), followed by incubation for 2 h at RT with HRP-conjugated anti-mouse or anti-rabbit (1:10,000) or anti-goat (1:20,000) IgG as a secondary antibody. Enhanced chemiluminescent substrate (Pierce Chemical, Rockford, IL, USA) was used to detect HRP. The signal was captured in the dark using FUSION-FX (Vilber Lourmat) software.
The VDAC1 protein was purified from rat liver mitochondria, as previously described. Briefly, rat liver mitochondria (5 mg/mL) in 10 mM Tris-HCl, pH 7.2, were incubated with 2% LDAO on ice for 20 min, followed by centrifugation (30 min, 14,000× g), and the obtained supernatant was loaded onto a dry celite:hydroxyapatite (2:1) column. VDAC1 was eluted with a solution containing 2% LDAO, 10 mM Tris-HCl, pH 7.2, 50 mM NaCl, and 22 mM NaH2PO4. The VDAC1-containing fractions were dialyzed against 10 mM Tris-HCl, pH 7.2, and subjected to a second chromatography step on a carboxymethyl-cellulose (CMC) column from which VDAC1 was eluted with a solution containing 10 mM Tris-HCl, pH 7.2, 0.3% LDAO, and 500 mM NaCl. The VDAC1-containing fractions were collected and used for VDAC1 channel conductance and microscale thermophoresis (MST) assays.
Recombinant SOD1^WT, SOD1^G93A, and SOD1^G85R were purified as previously described. Briefly, the proteins were expressed as 6His-tagged (N-term) soluble proteins in BL21 cells, and the expression of the recombinant proteins was induced by addition of 0.5 mM IPTG, following purification using a 5mL HisTrap FF column (GE Healthcare, Chicago, IL, USA). The peak fractions were dialyzed overnight at 4 °C against a storage buffer (50 mM Na^+/phosphate, pH 7.6, 0.1 M NaCl, and 10% glycerol), concentrated by ultrafiltration (10 kDa cutoff, Millipore, USA), centrifuged at 110,000× g at 4 °C for 1 h using ultracentrifuge (Sorvall M120 Discovery, Waltham, MA, USA), and stored at −20 °C until use. […]

With “1-MAVPPTYADLGKSARDVFTK-20-RQIKIWFQNRRMKWKK [(10–20)-N-Ter-Antp, VDAC1-N-terminus-derived peptide]”, the cell death activity result in test [1] was “lost its cell death activity”. Moreover, in test [2], the “rescue of mutant SOD1-induced toxicity (cell survival)” value is “rescued mutant SOD1-induced toxicity increasing SH-SY5Y cell survival”.
Consider “SOD1^G85R: recombinant dismutase inactive SOD1 mutant, 6His-tagged (N-term)”, for which, in test [3], the “inhibition of VDAC1 interaction with 1C17 peptide” value (“inhibition … with 1C17 peptide” below) is recorded as “at a similar level”; the “decrease of VDAC1 interaction with both SOD1-derived peptides 1C16 and 1C17” value (“decrease of VDAC1 interaction” below) is given as “decreased the VDAC1 interaction with both SOD1-derived peptides”.
For the substance “SOD1^G93A: recombinant dismutase active SOD1 mutant, 6His-tagged (N-term)”, in test [3] (spot 1C16), the “inhibition of VDAC1 interaction with 1C16 peptide” value was “prevented the interaction of VDAC1 with the 1C16 peptide better than SOD1^WT and SOD1^G85R”. In test [3], the “inhibition … with 1C17 peptide” value is given as “at a similar level”; the “decrease of VDAC1 interaction” value is “decreased the VDAC1 interaction with both SOD1-derived peptides”.
For “SOD1^WT: recombinant wild type SOD1, 6His-tagged (N-term)”, in test [3], the “inhibition … with 1C17 peptide” value is reported as “at a similar level”; the “decrease of VDAC1 interaction” value is recorded as “decreased the VDAC1 interaction with both SOD1-derived peptides”.
